From patent publication US6756063B2, “Methods and compositions for the treatment of human and animal cancers” (Zoltan Laboratories, LLC, priority 2001, dated 2004)

Key:
[1] = tested on: MDA-MB-231, human mammary gland (epithelial) adenocarcinoma, estrogen receptor negative; assay: Cell killing in MDA-MB-231; assay type: cell-based; conditions: for effectiveness of compositions comprising another dithiocarbonyl compared with PDC: same conditions as the PDC compositions
Protocol: (§1) To determine the effects of the present compositions, cells were grown in the indicated medium in either 12-well plates (to assess morphological changes and measure DNA synthesis); 6-well plates (for determination of apoptosis/necrosis); or 96-well plates (for determination of cellular proliferation by the MTT assay). All media contained 10% fetal bovine serum. In each experiment, the medium was replaced with fresh medium at 2 h. prior to treatment. Treatments were performed with sterile solutions of the compositions (made up either in the respective medium or water) for 1 min.-72 h. In some cases, treatments were done for 1 min., followed by incubation of washed cells for various time periods.
(§2) Cells were cultured in Leibovitz's L-15 cell culture medium (Gibco) and 10% fetal bovine serum; the medium was changed 6 h. prior to treatment. […] For DNA synthesis experiments, cells were incubated with [^3H]-thymidine (1 μCi/ml) between 40-50 mins. of treatment; for cell proliferation experiments, cells were trypsinized after treatment, re-plated, and viable cells counted 1 week later.

[2] = tested on: MDA-MB-468, human mammary gland (epithelial) adenocarcinoma, estrogen receptor negative; assay: Cell killing in MDA-MB-468; assay type: cell-based; conditions: in the above experiments
Protocol: as §1
as §2, with “L-15” for “L-15 cell culture”, “medium” for “medium (Gibco)”, “120-130” for “40-50”

[3] = tested on: T-47D, human mammary gland (epithelial) ductal carcinoma, estrogen receptor positive; assay: Cell killing in T-47D; assay type: cell-based
Protocol: as §1
as §2, with “modified RPMI 1640” for “Leibovitz's L-15”, “(see Gibco Catalogue), with 2 mM L-glutamine, 10 mM Hepes, 1 mM sodium pyruvate, 4.5 g/L glucose, 1.5 g/L sodium bicarbonate, 0.2 I.U. bovine insulin/ml,” for “(Gibco)”, “120-130” for “40-50”, “replated,” for “re-plated,”

[4] = tested on: ZR-75-1, human mammary gland (epithelial) ductal carcinoma, ascites, estrogen receptor positive; assay: Cell killing in ZR-75-1; assay type: cell-based
Protocol: as §1
ZR-75-1, human mammary gland (epithelial) ductal carcinoma, ascites, estrogen receptor positive. Cells were cultured in modified RPMI 1640 medium with 2 mM L-glutamine, 10 mM Hepes, 1 mM sodium pyruvate, 4.5 g/L glucose, 1.5 g/L sodium bicarbonate, 0.2 I.U. bovine insulin/ml, and 10% fetal bovine serum; the medium was changed 6 h. prior to treatment. […] For DNA synthesis experiments, cells were incubated with [^3H]-thymidine (1 μCi/ml) between 120-130 mins. of treatment; for cell proliferation experiments, cells were trypsinized after treatment, re-plated, and viable cells counted 1 week later.

[5] = tested on: MCF-7, human breast carcinoma cells, estrogen receptor positive; assay: Cell killing in MCF-7; assay type: cell-based; conditions: in the above experiments
Protocol: as §1
Cells were cultured in Dulbecco's modified Eagle's medium containing 2 mM L-glutamine and 10% fetal calf serum; the medium was changed 2 h prior to treatments. […] For DNA synthesis experiments, cells were incubated with [^3H]-thymidine ([…]) between 120-130 min of treatment; for cell proliferation experiments, cells were trypsinized after treatment, re-plated, and viable cells counted 1 week later.

[6] = tested on: T-47D, 2R-75-1, A431, MDA-MB-231, AN3Ca, CaOV3; assay: Proliferation of cancer cell lines; assay type: cell-based
normal cells = assay: Proliferation of normal cells; assay type: cell-based
BDF1 adult female mice = assay: In vivo acute toxicological investigation, intraperitoneal; conditions: alone, 0.5-2 mM in physiological saline, followed 21 days
Protocol: Specified pathogen free (SPF) hygienic category first generation hybrid BDF1 (C57B1 female×DBA/2 male) adult female mice weighing 22-23 g were used. The animals were kept in macrolon cages at 22-24 C (45-55% humidity), with a lighting regimen of 12/12 h light/dark.
The animals were followed for 21 days and evaluated based on survival and body weight. Seven animals were evaluated for each treatment.

[7] = components at 50 μM PDC, 120 μM Zn, 100 μM EA, 3 mM DMETN, 2 h

S=C(S)OC1CC2CC1C1CCCC21 (stereo not shown) [Composition D609]
effectiveness of compositions comprising another dithiocarbonyl compared with PDC [1]: as effective as compositions comprising PDC
effectiveness of compositions comprising another dithiocarbonyl compared with PDC [2]: as effective as those comprising PDC
effectiveness of compositions comprising another dithiocarbonyl compared with PDC ([3]; in the above experiments): as effective as those comprising PDC
effectiveness of compositions comprising another dithiocarbonyl compared with PDC ([4]; in the above experiments): as effective as those comprising PDC
effectiveness of compositions comprising another dithiocarbonyl compared with PDC [5]: as effective as those comprising PDC

CN(C)CCO [DMETN, dimethylethanolamine]
proliferation of cancer cell lines [6]: inhibits proliferation
proliferation of normal cells (normal cells): generally increasing proliferation

C=C(CC)C(=O)c1ccc(OCC(=O)O)c(Cl)c1Cl [EA, ethacrynic acid]
cells killed ([1]; 60 μM EA alone, after 3 h): about 100%
cells killed ([1]; components at 25 μM PDC, 60 μM Zn, 60 μM EA, 3 mM DMETN, 40 min): about 70%
cells killed [3, 7]: about 100%
cells killed [4, 7]: about 100%
acute toxicity (survival and body weight) (BDF1 adult female mice): not toxic

CCN(CC)C(=S)SSC(=S)N(CC)CC [disulfuram, tetraethylthiuram disulfide]
effectiveness of compositions comprising another dithiocarbonyl compared with PDC [1]: as effective as compositions comprising PDC
